# Assay results reported in patent publication US20140234364A1, “TOTAL SYNTHESIS AND IMM[…] […] OF THE LIPOPOLY[…] NEISSERIA MENINGITIDIS” (MAX-PLANCK-GESELLSCHAFT ZUR FÖRDERUNG DER WISSENSCHAFTEN …, priority 2011, published 2014).
# Test system: female BALB/c mice
# Test: Immunization of mice in presence of Freund's adjuvant, antibody responses in sera analyzed by glycan microarray
# Assay type: in vivo
# Description: To evaluate the immunogenicity of the meningococcal tetrasaccharide 1, two groups of six female BALB/c mice, six to eight weeks old, were immunized subcutaneously (s.c.) in presence of Freund's adjuvant (FA). Each mouse of the first group was immunized s.c. with 0.4 μg unconjugated tetrasaccharide 1 antigen in presence of Freund's adjuvant (priming with Freund's Complete Adjuvant, boosting with Freund's Incomplete Adjuvant, both Sigma). Each mouse of the second group received tetrasaccharide 1-CRM197 conjugate, whereby the amount of conjugate corresponded to 0.4 μg tetrasaccharide 1 antigen. Two weeks after initial immunizations, first boosting injection was performed with 4 μg tetrasaccharide 1 or the corresponding tetrasaccharide 1-CRM197 conjugate.
# For all immunizations, antigen was diluted in sterile PBS to a total injection volume of 100 μL per mouse. Blood was collected at the tail vein and erythrocytes were separated from serum by centrifugation. All blood samples from the initial immunization study with FA were diluted with 10 μl sterile PBS before sera separation. Sera were collected in definited time intervals and IgG antibody responses were analyzed by microarray.
# Tetrasaccharide 1 in three different concentrations (1, 0.5 and 0.1 mM), CRM197 (1, 0.5 and 0.1 μM) and bovine serum albumin (BSA)-spacer-GlcNAc conjugate (1, 0.5 and 0.1 μM) were dissolved in sodium phosphate buffer (50 mM, pH 8.5) and printed in triplicate robotically using a piezoelectric spotting device (S11, Scienion, Berlin, Germany) onto the surface of the microarray slides (NHS-activated glass slides; CodeLink). BSA-spacer-GlcNAc was used to assess immunogenicity against the spacer moiety of the conjugate. […]
# The quenched array slides were blocked for 1 hour with 1% (w/v) BSA in PBS, then washed three times with PBS and dried by centrifugation. […] Then, slides were incubated with fluorescence-labeled detection antibody diluted in 1% BSA-PBS (w/v) for 1 hour at room temperature in a humid chamber. […]
smiles,measurement,setting,value
"CC(=O)NC1C(O)[C@H](O)C(CO)O[C@@H]1OC1C(O)[C@H](O)C([C@@H](O)CO)O[C@@H]1OC1C(O)[C@@H](O[C@@H]2C(O)C[C@](OCCCCCN)(C(=O)O)OC2[C@H](O)CO)OC([C@@H](O)CO)[C@H]1O (stereo partly drawn) [tetrasaccharide 1, 2-N-acetyl-2-deoxy-α-D-glucopyranosyl-(1→2)-L-glycero-α-D-manno-heptopyranosyl-(1→3)-L-glycero-α-D-manno-heptopyranosyl-(1→5)-2-(5-amino)pentyl-3-deoxy-α-D-manno-oct-2-ulopyranosidonic acid]","IgG antibody response, anti-tetrasaccharide 1 titers (fluorescence intensity)","1:80 sera dilution, after first boosting, Freund's adjuvant",relatively weak
same,Tetrasaccharide 1-specific IgG and IgM antibody responses in pooled sera,"after first boosting with 4 μg (4. week), Freund's adjuvant",identified
same,IgG response one week after second boosting,"second boost 4 μg antigen in week 8, read in week 9",marginal increase
